# Test results as given in patent US20190144942A1, “METHODS FOR IDENTIFYING AND MODULATING IMMUNE PHENOTYPES” (priority 2016, published 2019).
# “Also recorded” adds a separate entry of the source. Read-outs that look alike come from different tables or passages of the source.
# Tests used:
# Type in all cases: cell-based, human
# [1] = tested on: cluster 1-like/CD64^Hi,PD-L1^Hi cDCs; test: Acquisition of the CD64Hi,PD-L1Hi cDC phenotype in elite controller cells exposed to virus with inhibitory drugs (flow cytometry)
# [2] = tested on: cluster 1-like/CD64^Hi,PD-L1^Hi cDCs; test: Induction of CD64Hi,PD-L1Hi cDCs in PBMCs incubated with TLR3 agonist and nanoparticle-encapsulated HIV-1 Gag DNA, without live virus; conditions: PBMCs from healthy (HIV-negative) individuals; 2 μg/ml Poly I:C and/or polymer nanoparticles loaded with 100 nucleotide HIV-1 Gag DNA; no live virus
# Protocol: PBMC or isolated cDCs were stained with LIVE/DEAD cell blue viability dye (Invitrogen, Carlsbad, Calif.) and monoclonal antibodies directed against CD11c (Biolegend), CD14 (BD), HLA-DR, CD64, PDL-1, ICAM1, CD16, SLAMF8 (Biolegend) and subsequently analyzed on a Fortessa cytometer (BD Biosciences, San Jose, Calif.). For intracellular cytokine staining, cells were treated with a commercial fixation/permeabilization kit (BioLegend) according to the manufacturer's protocol. Data were analyzed with FlowJo software (Tree Star). cDCs were identified from bulk PBMCs as a population of viable CD14^− lymphocytes expressing high levels of CD11c and HLA-DR.
# Finally, Applicants explored how Applicants might further exploit this TBK1-dependent innate immune sensing pathway to boost the fraction of cDCs acquiring the cluster 1 phenotype without exposure to live virus. For this purpose, Applicants incubated PBMCs from healthy individuals or ECs simultaneously with a TLR3 agonist (Poly(I:C)) and single- or double-stranded HIV-1 Gag DNA (ssDNA or dsDNA, respectively) encapsulated in polymeric nanoparticles. […]
# [3] = tested on: cluster 1-like/CD64^Hi,PD-L1^Hi cDCs
molecule,measurement,setting,value
O=C(NCCCNc1nc(Nc2cccc(NC(=O)N3CCCC3)c2)ncc1I)c1cccs1 [BX795],"induction of the cluster 1-like/CD64^Hi,PD-L1^Hi population","[1]; EC PBMCs, 1 μM BX795 added at the time of viral addition, p=0.0020, Wilcoxon signed-rank test",dramatic and significant abrogation
O=C(N[C@H](Cc1ccccc1)C(=O)O)c1sc2cc(F)ccc2c1Cl [TLR3 inhibitor],"acquisition of the cluster 1/CD64^Hi,PD-L1^Hi cDC phenotype","[1]; elite controllers (ECs), virus plus TLR3 or TLR4 antagonist vs DMSO, p=0.0^2, Wilcoxon matched-pairs signed-rank test","modest, but significant, effect"
Poly(I:C),"proportion of cluster 1-like/CD64^Hi,PD-L1^Hi cDCs",[2],insufficient
same,proportion of CD64^Hi PDL1^Hi cells among cDCs,[3],significantly induce
same,"proportion of cluster 1-like/CD64^Hi,PD-L1^Hi cDCs",[3]; 24 hours,significantly induce; also recorded: induced a larger population; also recorded: significant increase
